{"source": "patent US4443436A", "about": "“C-20-Modified macrolide derivatives of the macrolide antibiotics tylosin, desmycosin, macrocin, and lactenocin” (Eli Lilly and Company, priority 1982, dated 1984)", "key": {"[1]": {"test_system": "Haemophilus influenzae Holt", "experiment": "MIC, standard agar-dilution assay, Haemophilus influenzae Holt", "format": "cell-based", "conditions": "Haemophilus influenzae Holt; ampicillin-sensitive strain; agar dilution"}, "[2]": {"test_system": "Staphylococcus aureus X1.1", "experiment": "MIC, standard agar-dilution assay, Staphylococcus aureus X1.1", "format": "cell-based", "conditions": "Staphylococcus aureus X1.1; agar dilution"}, "[3]": {"test_system": "Streptococcus Group D X66", "experiment": "MIC, standard agar-dilution assay, Streptococcus Group D X66", "format": "cell-based", "conditions": "Streptococcus Group D X66; agar dilution"}, "Mycoplasma gallisepticum [4]": {"test_system": "Mycoplasma gallisepticum", "experiment": "Antimycoplasmal activity in chicks infected with Mycoplasma gallisepticum", "format": "in vivo, two- to three-day-old chicks", "conditions": "gavage five times, equivalent to 0.5 g/gal", "description": "In these tests infections were induced in chicks by injecting 0.2 ml of a broth culture of M. gallisepticum into the abdominal air sac of two- to three-day-old chicks. The compounds were administered by gavage five times at a dose equivalent to 0.5 g/gal (on the day of challenge once prior to and once following the challenge, two times on the next day and once on the third day). Twenty-one days post-infection, the chicks were weighed, a blood sample was taken, and the chicks were sacrificed. The presence or absence of air-sac lesions was recorded."}, "[5]": {"test_system": "Haemophilus influenzae R252", "experiment": "MIC, standard agar-dilution assay, Haemophilus influenzae R252", "format": "cell-based", "conditions": "Haemophilus influenzae R252; ampicillin-resistant strain; agar dilution"}, "[6]": {"test_system": "Streptococcus pyogenes C203", "experiment": "MIC, standard agar-dilution assay, Streptococcus pyogenes C203", "format": "cell-based", "conditions": "Streptococcus pyogenes C203; agar dilution"}, "[7]": {"test_system": "Staphylococcus aureus S13E", "experiment": "MIC, standard agar-dilution assay, Staphylococcus aureus S13E", "format": "cell-based", "conditions": "Staphylococcus aureus S13E; agar dilution"}, "Mycoplasma gallisepticum [8]": {"test_system": "Mycoplasma gallisepticum", "experiment": "MIC, broth-dilution microtiter test, Mycoplasma gallisepticum", "format": "cell-based", "conditions": "Mycoplasma gallisepticum; broth-dilution microtiter", "excerpt": "(§1) The MIC's in Table X were obtained using conventional broth-dilution microtiter tests."}, "[9]": {"test_system": "Pasteurella multocida 60A", "experiment": "MIC, broth-dilution microtiter test, Pasteurella multocida 60A", "format": "cell-based", "conditions": "Pasteurella multocida 60A; avian isolate; broth-dilution microtiter", "excerpt": "as §1"}, "[10]": {"test_system": "Pasteurella multocida 17E", "experiment": "MIC, broth-dilution microtiter test, Pasteurella multocida 17E", "format": "cell-based", "conditions": "Pasteurella multocida 17E; bovine isolate; broth-dilution microtiter", "excerpt": "as §1"}, "Mycoplasma synoviae": {"test_system": "Mycoplasma synoviae", "experiment": "MIC, broth-dilution microtiter test, Mycoplasma synoviae", "format": "cell-based", "conditions": "Mycoplasma synoviae; broth-dilution microtiter", "excerpt": "as §1"}, "Streptococcus Group 9960": {"test_system": "Streptococcus Group 9960", "experiment": "MIC, standard agar-dilution assay, Streptococcus Group 9960", "format": "cell-based", "conditions": "Streptococcus Group 9960; agar dilution"}, "[11]": {"test_system": "Streptococcus pyogenes C203", "experiment": "In vivo protection of mice experimentally infected with S. pyogenes C203", "conditions": "mice, doses given 1 and 4 hours post-infection", "description": "The C-20 modified derivatives of this invention have shown in vivo antimicrobial activity against experimentally-induced infections in laboratory animals. When two doses of test compound were administered to mice experimentally infected with S. pyogenes C203, the activity observed was measured as an ED50 value [effective dose in mg/kg to protect 50% of the test animals: see Warren Wick, et al., J. Bacteriol. 81, 233-235 (1961)]."}, "[12]": {"test_system": "Staphylococcus epidermidis EPI2", "experiment": "MIC, standard agar-dilution assay, Staphylococcus epidermidis EPI2", "format": "cell-based", "conditions": "Staphylococcus epidermidis EPI2; agar dilution"}, "[13]": {"test_system": "Staphylococcus epidermidis EPI1", "experiment": "MIC, standard agar-dilution assay, Staphylococcus epidermidis EPI1", "format": "cell-based", "conditions": "Staphylococcus epidermidis EPI1; agar dilution"}, "[14]": {"test_system": "Staphylococcus aureus X400", "experiment": "MIC, standard agar-dilution assay, Staphylococcus aureus X400", "format": "cell-based", "conditions": "Staphylococcus aureus X400; methicillin-resistant strain; agar dilution"}, "Mycoplasma hyopneumoniae": {"test_system": "Mycoplasma hyopneumoniae", "experiment": "MIC, broth-dilution microtiter test, Mycoplasma hyopneumoniae", "format": "cell-based", "conditions": "Mycoplasma hyopneumoniae; broth-dilution microtiter", "excerpt": "as §1"}, "[15]": {"test_system": "Pasteurella hemolytica 22C", "experiment": "MIC, broth-dilution microtiter test, Pasteurella hemolytica 22C", "format": "cell-based", "conditions": "Pasteurella hemolytica 22C; broth-dilution microtiter", "excerpt": "as §1"}, "Pasteurella multocida [16]": {"test_system": "Pasteurella multocida", "experiment": "Subcutaneous treatment of Pasteurella multocida-infected chicks", "format": "in vivo, one-day-old chicks", "conditions": "30 mg/kg × 2, 1 and 4 hours post-challenge", "method_in_brief": "(§2)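 One-day-old chicks challenged subcutaneously with 0.1 ml of a 10^-4 dilution of a 20-hour tryptose broth culture of avian P. multocida. Compounds given by subcutaneous injection at 30 mg/kg 1 and 4 hours post-challenge, or by oral gavage 1 and 5 hours post-challenge.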"}, "[17]": {"experiment": "Plasma level after oral administration to dogs", "conditions": "female mongrel dogs; single 15 mg/kg oral dose"}, "[18]": {"test_system": "Streptococcus pneumoniae Park I", "experiment": "microbe, parasite or virus in culture", "format": "cell-based", "conditions": "Streptococcus pneumoniae Park I; agar dilution"}, "Streptococcus bovis 80": {"test_system": "Streptococcus bovis 80", "experiment": "MIC, broth-dilution microtiter test, Streptococcus bovis 80", "format": "cell-based", "conditions": "Streptococcus bovis 80; broth-dilution microtiter", "excerpt": "as §1"}, "[19]": {"test_system": "Staphylococcus aureus V41", "experiment": "MIC, standard agar-dilution assay, Staphylococcus aureus V41", "format": "cell-based", "conditions": "Staphylococcus aureus V41; penicillin-resistant strain; agar dilution"}, "Mycoplasma hyorhinis": {"test_system": "Mycoplasma hyorhinis", "experiment": "MIC, broth-dilution microtiter test, Mycoplasma hyorhinis", "format": "cell-based", "conditions": "Mycoplasma hyorhinis; broth-dilution microtiter", "excerpt": "as §1"}, "Staphylococcus aureus": {"test_system": "Staphylococcus aureus", "experiment": "MIC, broth-dilution microtiter test, Staphylococcus aureus", "format": "cell-based", "conditions": "broth-dilution microtiter", "excerpt": "as §1"}, "Pasteurella multocida [20]": {"test_system": "Pasteurella multocida", "experiment": "Oral (gavage) treatment of Pasteurella multocida-infected chicks", "format": "in vivo, one-day-old chicks", "method_in_brief": "as §2"}}}
{"smiles": "CC[C@H]1OC(=O)C[C@@H](O)[C@H](C)[C@@H](O[C@@H]2O[C@H](C)[C@H](O)[C@H](N(C)C)[C@H]2O)[C@@H](CCOc2ccccc2)C[C@@H](C)C(=O)/C=C/C(C)=C/[C@@H]1COC1O[C@H](C)[C@@H](O)[C@@H](OC)[C@H]1OC", "note": "(stereo partly shown) [Compound 33, 20-DH-20-O-Phenyldesmycosin]", "values": [{"measurement": "MIC", "setting": "[1]", "result": 32, "unit": "µg/mL"}, {"measurement": "MIC", "setting": "[2]", "result": 0.25, "unit": "µg/mL"}, {"measurement": "MIC", "setting": "[3]", "result": 8, "unit": "µg/mL"}, {"measurement": "Number with Antibodies/Number Tested", "setting": "Mycoplasma gallisepticum [4]; antibodies to M. gallisepticum, 21 days post-infection", "result": "10/10"}, {"measurement": "Mortality", "setting": "Mycoplasma gallisepticum [4]", "result": "0/10"}, {"measurement": "Number with Air-Sac Lesions/Number Treated", "setting": "Mycoplasma gallisepticum [4]; 21 days post-infection", "result": "2/10"}, {"measurement": "MIC", "setting": "[5]", "result": 32, "unit": "µg/mL"}, {"measurement": "MIC", "setting": "[6]", "result": 2, "unit": "µg/mL"}, {"measurement": "MIC", "setting": "[7]", "result": 0.25, "unit": "µg/mL"}, {"measurement": "MIC", "setting": "Mycoplasma gallisepticum [8]", "result": 0.39, "unit": "µg/mL"}, {"measurement": "MIC", "setting": "[9]", "result": 12.5, "unit": "µg/mL"}, {"measurement": "MIC", "setting": "[10]", "result": 12.5, "unit": "µg/mL"}, {"measurement": "MIC", "setting": "Mycoplasma synoviae", "result": 1.56, "unit": "µg/mL"}, {"measurement": "MIC", "setting": "Streptococcus Group 9960", "result": 16, "unit": "µg/mL"}, {"measurement": "ED50, Oral", "setting": "[11]; oral", "result": 9, "unit": "mg/kg × 2"}, {"measurement": "ED50, Subcutaneous", "setting": "[11]; subcutaneous", "result": 1.5, "unit": "mg/kg × 2"}, {"measurement": "MIC", "setting": "[12]", "result": 0.12, "unit": "µg/mL"}, {"measurement": "MIC", "setting": "[13]", "result": 0.25, "unit": "µg/mL"}, {"measurement": "MIC", "setting": "[14]", "result": 0.25, "unit": "µg/mL"}, {"measurement": "MIC", "setting": "Mycoplasma hyopneumoniae", "result": 25, "unit": "µg/mL"}, {"measurement": "MIC", "setting": "[15]", "result": 25, "unit": "µg/mL"}, {"measurement": "Number of Deaths/Number Treated", "setting": "Pasteurella multocida [16]", "result": "10/10"}, {"measurement": "peak plasma level", "setting": "[17]", "result": 2.1, "unit": "µg/mL"}, {"measurement": "MIC", "setting": "[18]", "result": 2, "unit": "µg/mL"}, {"measurement": "MIC", "setting": "Streptococcus bovis 80", "result": 6.25, "unit": "µg/mL"}, {"measurement": "MIC", "setting": "[19]", "result": 0.25, "unit": "µg/mL"}, {"measurement": "MIC", "setting": "Mycoplasma hyorhinis", "result": 25, "unit": "µg/mL"}, {"measurement": "MIC", "setting": "Staphylococcus aureus", "result": 0.39, "unit": "µg/mL"}, {"measurement": "Number of Deaths/Number tested", "setting": "Pasteurella multocida [20]; 1.0 g/gal equivalent", "result": "9/9"}, {"measurement": "Number of Deaths/Number tested", "setting": "Pasteurella multocida [20]; 2.0 g/gal equivalent", "result": "3/9"}, {"measurement": "Number of Deaths/Number tested", "setting": "Pasteurella multocida [20]; 2.0 g/gal equivalent, 13/20 infected nonmedicated chicks died in this test", "result": "7/10"}]}
